In patent US12029715B2, “Precursor compounds for providing retinoids of the vitamin A5 pathway and uses thereof” (UNIVERSITY OF DEBRECEN, priority 2015, dated 2024):

System: hRARα, β and γ LBDs
Test: ESI-MS in non-denaturing conditions, binding to RAR LBD isotypes
Design: species or system human
Settings: 5-fold molar excess of ligand
Experimental: cDNAs encoding hRXRα LBD (223-462), hRARα LBD (153-421), hRARBβ LBD (169-414) and hRARγ LBD (178-423) were cloned into pET28b vector to generate N-terminal Histag fusion proteins. Purification was carried out as previously described [Lippert W P et al. 2009, Osz J, et al. 2012], including a metal affinity chromatography and a gel filtration. For details of sample preparation and ESI-MS analyses see below.
cDNAs encoding hRXRαLBD (223-462), hRARαLBD (153-421), hRARβLBD (169-414) and hRARγ LBD (178-423) were cloned into pET28b vector to generate N-terminal His-tag fusion proteins. Purification was carried out as previously described [Lippert W P et al. 2009, Osz J, et al. 2012], including a metal affinity chromatography and a gel filtration. Prior to ESI-MS analysis, samples were desalted on Zeba Spin desalting columns (Pierce) in 150 mM ammonium acetate (pH 8.0). ESI-MS measurements were performed on an electrospray time-of-flight mass spectrometer (MicrOTOF, Bruker Daltonics). Purity and homogeneity of the proteins were verified by mass spectrometry in denaturing conditions (samples were diluted at 2 pmol/μl in a 1:1 water-acetonitrile mixture (v/v) acidified with 1% formic acid). The mass measurements of the noncovalent complexes were performed in ammonium acetate (200 mM; pH 8.0). […]

CC1=C(/C=C/C(C)=C\C=C\[C@H](C)CC(=O)O)C(C)(C)CCC1 [(R)-9CDHRA, (9Z,13R)-13,14-Dihydroretinoic Acid]
binding to RAR LBD isotypes in ESI-MS: bind to all RAR LBD isotypes
